Like-named read-outs stand apart in the source and are kept apart here.
Tested on: MCF-7 cells
Assay: MCF-7 cell proliferation inhibition assay
Assay type: cell-based
Conditions: Homo sapiens, MCF7, 144 h
Procedure: Experimental Reagent: RPMI 1640 medium, fetal bovine serum, Promega CellTiter-Glo reagent. The cell line MCF-7 was purchased from The European Collection of Authenticated Cell Cultures (ECACC). Envision Multilabel Reader (PerkinElmer). Experimental Method: […] The cell plate was placed in a carbon dioxide incubator overnight. […] The cell plate was incubated in a carbon dioxide incubator for 6 days. Promega CellTiter-Glo reagent was added to the cell plate at 25 μL per well, cells were incubated for 10 minutes at room temperature to stabilize the luminescence signal, which was measured using PerkinElmer Envision Multilabel Reader. Data Analysis: […] (Model 205 in XLFIT5, iDBS)

[1] = MCF-7 cells, 6 days incubation, CellTiter-Glo, read-out: anti-proliferation in MCF-7 cells
[2] = read-out: anti-proliferation in MCF-7 cells (nM)

Row | Structure (SMILES) | IC50 [1] | IC50 [2]
1 | CC/C(=C(/c1ccc(/C=C/C(=O)O)cc1)c1[nH]c2ccccc2c1C#N)c1ccc(OC)cc1Cl [Compound I-42] | 0.77 nM | –
2 | CC/C(=C(/c1ccc(/C=C/C(=O)O)cc1)c1[nH]c2ccccc2c1C#N)c1ccc(Cl)cc1Cl [Compound I-53] | 4.35 nM | –
3 | CC/C(=C(\c1cc2ccccc2[nH]1)c1c(F)cc(/C=C/C(=O)O)cc1F)c1ccc(F)cc1Cl [Compound I-57] | – | 32 nM
4 | CC/C(=C(/c1ccc(OCCN2CC(CC#N)C2)cc1)c1[nH]c2ccccc2c1Cl)c1ccc(F)cc1Cl [II-8] | 5 nM | –
5 | CC/C(=C(/c1ccc(/C=C/C(=O)O)cc1)c1cc2ccccc2[nH]1)c1ccc(F)cc1F [Compound I-45] | – | 103 nM
6 | CC/C(=C(/c1ccc(/C=C/C(=O)O)cc1)c1[nH]c2ccccc2c1Cl)c1ccc(Cl)cc1C#N [Compound I-22] | 0.86 nM | –
7 | CC/C(=C(/c1ccc(/C=C/C(=O)O)cc1)c1[nH]c2ccccc2c1Cl)c1ccc(Cl)c(C)c1 [Compound I-28] | 69 nM | –
8 | CC/C(=C(/c1ccc(/C=C/C(=O)O)cc1)c1cc2ccccc2[nH]1)c1ccsc1C#N [Compound I-18] | – | 22 nM
9 | CC/C(=C(\c1cc2ccccc2[nH]1)c1c(F)cc(OCCN2CC(CF)C2)cc1F)c1ccc(F)cc1Cl [II-4] | 6.86 nM | –
10 | CC/C(=C(/c1ccc(/C=C/C(=O)O)cc1)c1[nH]c2ccccc2c1C#N)c1cc(Cl)sc1Cl [Compound I-36] | 6.84 nM | –
11 | CC/C(=C(/c1ccc(/C=C/C(=O)O)cc1)c1[nH]c2ccccc2c1C#N)c1ccc(F)cc1Cl [Compound I-23] | 4.84 nM | –
12 | CC/C(=C(/c1ccc(OCCN2CC(CF)C2)cc1)c1cc2ccccc2[nH]1)c1ccc(F)cc1Cl [II-1] | – | 4.57 nM
13 | CC/C(=C(/c1ccc(/C=C/C(=O)O)cc1)c1cc2ccccc2[nH]1)c1cc(Cl)sc1Cl [Compound I-17] | – | 8.29 nM
14 | CC/C(=C(/c1ccc(OCCN2CC(CC#N)C2)cc1)c1[nH]c2ccccc2c1Cl)c1ccc(Cl)cc1C#N [II-12] | 1.56 nM | –
15 | CC/C(=C(/c1ccc(/C=C/C(=O)O)cc1)c1[nH]c2ccccc2c1Cl)c1cc(Cl)sc1Cl [Compound I-35] | 20 nM | –
16 | CC/C(=C(/c1ccc(OCCN2CC(CF)C2)cc1)c1cc2ccccc2[nH]1)c1ccccc1Cl [II-6] | 2.46 nM | –
17 | CC/C(=C(/c1ccc(OCCN2CC(CF)C2)cc1)c1cc2ccccc2[nH]1)c1ccccc1C#N [II-7] | 2.61 nM | –
18 | CC/C(=C(/c1ccc(OCCN2CC(CF)C2)cc1)c1[nH]c2ccccc2c1Cl)c1ccc(F)cc1Cl [II-5] | 7.23 nM | –
19 | CC/C(=C(/c1ccc(/C=C/C(=O)O)cc1)c1[nH]c2ccccc2c1Cl)c1ccc(Cl)cc1 [Compound I-24] | 21.5 nM | –
20 | CC/C(=C(/c1ccc(/C=C/C(=O)O)cc1)c1[nH]c2ccccc2c1Cl)c1ccc2c(c1)OCCO2 [Compound I-31] | 3.66 nM | –
21 | CC/C(=C(/c1ccc(OCCN2CC(CC#N)C2)cc1)c1cc2ccccc2[nH]1)c1ccc(Cl)cc1C(F)(F)F [II-9] | 51 nM | –
22 | CC/C(=C(/c1ccc(/C=C/C(=O)O)cc1)c1cc2ccccc2[nH]1)c1c(C)cccc1Cl [Compound I-29] | – | 30 nM
23 | CC/C(=C(/c1ccc(/C=C/C(=O)O)cc1)c1[nH]c2ccccc2c1Cl)c1ccc(Cl)nc1C#N [Compound I-55] | 2.42 nM | –
24 | CC/C(=C(/c1ccc(OCCN2CC(CC#N)C2)cc1)c1cc2ccccc2[nH]1)c1ccccc1Cl [II-10] | 3.92 nM | –
25 | CC/C(=C(/c1ccc(OCCN2CC(CF)C2)cc1)c1cc2cc(F)ccc2[nH]1)c1ccc(F)cc1Cl [II-3] | 6.77 nM | –
26 | CC/C(=C(/c1ccc(/C=C/C(=O)O)cc1)c1[nH]c2ccccc2c1Cl)c1ccsc1C#N [Compound I-15] | 7.56 nM | –
27 | CC/C(=C(/c1ccc(/C=C/C(=O)O)cc1)c1[nH]c2ccccc2c1Cl)c1ccc(OC)cc1 [Compound I-33] | 2.86 nM | –

Second part, led by results:

Row | IC50 [1] | Structure (SMILES) | IC50 [2]
28 | 33 nM | CC/C(=C(/c1ccc(/C=C/C(=O)O)cc1)c1cc2ccccc2[nH]1)c1ccccc1C [Compound I-50] | –
29 | 3.91 nM | CC/C(=C(/c1ccc(/C=C/C(=O)O)cc1)c1cc2ccccc2[nH]1)c1ccc(OC)cc1Cl [Compound I-41] | –
30 | 393 nM | CC/C(=C(/c1ccc(/C=C/C(=O)O)cc1)c1cc2cnccc2[nH]1)c1ccc(F)cc1Cl [Compound I-46] | –
31 | 14 nM | CC/C(=C(/c1ccc(/C=C/C(=O)O)cc1)c1cc2ccccc2[nH]1)c1ccc(Cl)cc1C#N [Compound I-21] | –
32 | 5.59 nM | CC/C(=C(/c1ccc(/C=C/C(=O)O)cc1)c1[nH]c2ccccc2c1Cl)c1ccc(F)cc1Cl [Compound I-8] | –
33 | 8.36 nM | CC(C)C/C(=C(/c1ccc(/C=C/C(=O)O)cc1)c1cc2ccccc2[nH]1)c1ccc(F)cc1Cl [Compound I-27] | –
34 | 13 nM | CC/C(=C(/c1ccc(/C=C/C(=O)O)cc1)c1cc2ccccc2[nH]1)c1ccc(F)cc1C(F)(F)F [Compound I-12] | –
35 | 2.31 nM | CC/C(=C(/c1ccc(/C=C/C(=O)O)cc1)c1[nH]c2ccccc2c1F)c1ccc(F)cc1Cl [Compound I-40] | –
36 | 282 nM | CC/C(=C(/c1ccc(/C=C/C(=O)O)cc1)c1cc2ccccc2[nH]1)c1cccc(OC(F)(F)F)c1 [Compound I-2] | –
37 | 4.27 nM | CC/C(=C(/c1ccc(/C=C/C(N)=O)cc1)c1cc2ccccc2[nH]1)c1ccc(Cl)cc1C(F)(F)F [Compound I-47] | –
38 | 325 nM | CC/C(=C(/c1ccc(/C=C/C(=O)O)cc1)c1cc2ccccc2[nH]1)c1cccc(C(F)(F)F)c1 [Compound I-4] | –
39 | 206 nM | CC/C(=C(/c1ccc(/C=C/C(=O)O)cc1)c1cc2ccccc2[nH]1)c1ccccc1OC(F)(F)F [Compound I-3] | –
40 | 40 nM | CC/C(=C(/c1ccc(/C=C/C(=O)O)cc1)c1cc2ccccc2[nH]1)c1cccc(F)c1C#N [Compound I-52] | –
41 | 9.52 nM | CC/C(=C(/c1ccc(/C=C/C(=O)O)cc1)c1[nH]c2ccccc2c1Br)c1ccc(F)cc1Cl [Compound I-7] | –
42 | 167 nM | CC/C(=C(/c1ccc(/C=C/C(=O)O)cc1)c1cc2ccc(F)cc2[nH]1)c1ccc(F)cc1Cl [Compound I-9] | –
43 | 321 nM | CC/C(=C(/c1ccc(/C=C/C(=O)O)cc1)c1cc2ccccc2[nH]1)c1cccs1 [Compound I-6] | –
44 | 11 nM | CC/C(=C(/c1ccc(/C=C/C(=O)O)cc1)c1cc2ccccc2[nH]1)c1ccc(Cl)cc1Cl [Compound I-37] | –
45 | 49 nM | CC/C(=C(/c1ccc(/C=C/C(=O)O)cc1)c1cc2ccccc2[nH]1)c1ccc(C#N)cc1Cl [Compound I-34] | –
46 | 42 nM | CC/C(=C(/c1ccc(/C=C/C(=O)O)cc1)c1cc2ccccc2[nH]1)c1ccccc1C#N [Compound I-49] | –
47 | 8.53 nM | CC/C(=C(/c1ccc(/C=C/C(=O)O)cc1)c1[nH]c2ccccc2c1Br)c1ccccc1C(F)(F)F [Compound I-11] | –
48 | 4.88 nM | CC/C(=C(/c1ccc(/C=C/C(=O)NS(C)(=O)=O)cc1)c1cc2ccccc2[nH]1)c1ccc(Cl)cc1C(F)(F)F [Compound I-48] | –
49 | 5.84 nM | CC/C(=C(/c1ccc(/C=C/C(=O)O)cc1)c1[nH]c2ccccc2c1Cl)c1ccc(Cl)cc1C(F)(F)F [Compound I-44] | –
50 | 27 nM | CC/C(=C(/c1ccc(/C=C/C(=O)O)cc1)c1cc2ccccc2[nH]1)c1ccc(C(F)(F)F)cc1Cl [Compound I-13] | –
51 | 13 nM | CC/C(=C(/c1ccc(/C=C/C(=O)O)cc1)c1[nH]c2ccccc2c1Cl)c1ccccc1C(F)(F)F [Compound I-10] | –
52 | 8.04 nM | CC/C(=C(/c1ccc(/C=C/C(=O)O)cc1)c1cc2ccccc2[nH]1)c1ccccc1C(F)(F)F [Compound I-5] | –

From US10519143B2, “Substituted-indole-compounds as estrogen receptor down-regulators” (LUOXIN PHARMACEUTICAL (SHANGHAI) CO., LTD, priority 2016, dated 2019)
